Among the data in patent US20050176727A1, “Oximes and hydrazones that are useful in treating sexual dysfunction” (priority 2004, published 2005) are most efficacious dose and melting point values, retold here.

Structures can show the parent of a compound that is named as a salt.

One data set relates to penile erection in Wistar rats. Description: Rat penile erection model. The conditions noted are these: reference compound. In kind it is in vivo. How it is done:
Wistar rats were used as a primary animal model to study penile erection in vivo. All experiments were carried out between 9:00 AM and 3:00 PM in a diffusely illuminated testing room with a red light. Animals (n=8-30) were weighed and allowed to adapt to the testing room for 60 minutes before the beginning of experiments. Rats were placed individually in a transparent cage (20×30×30 cm) after drug injection.
The compound `CN1CCc2cccc3c2[C@H]1Cc1ccc(O)c(O)c1-3` [apomorphine, (6aR) 5,6,6a,7-tetrahydro-6-methyl-4H-dibenzo[de,g]quinoline-10,11-diol] yielded a most efficacious dose of 0.1 µmol/kg.

Test system in the next data set: not given
Assay: not given
Conditions: not given
`N#CCON=C(CCN1CCN(c2ccccn2)CC1)c1ccccc1` (as salt: maleate) [Example 29, ({[1-phenyl-3-(4-pyridin-2-ylpiperazin-1-yl)propylidene]amino}oxy)acetonitrile] gave a melting point of 127 to 128 °C.
Same read-out and setting: as for `CCCCON=C(CCN1CCN(c2ccccn2)CC1)c1ccccc1` (as salt: maleate) [Example 30, 1-phenyl-3-(4-pyridin-2-ylpiperazin-1-yl)propan-1-one O-butyloxime], the figure is 154 to 155 °C; as for `CC(C)O/N=C(\CCN1CCN(c2ccccn2)CC1)c1ccccc1` (as salt: maleate) [Example 31, (1E)-1-phenyl-3-(4-pyridin-2-ylpiperazin-1-yl)propan-1-one O-isopropyloxime], 156 to 157 °C.
The same measure, in the same setting: as for `CON=C(c1ccc(Cl)cc1)C(C)CN1CCN(c2ccccn2)CC1` (stereo not shown) (as salt: maleate) [Example 39, 1-(4-chlorophenyl)-2-methyl-3-(4-pyridin-2-ylpiperazin-1-yl)propan-1-one O-methyloxime], the figure is 152 to 153 °C.
Compound `ON=C(CCN1CCN(c2ccccn2)CC1)c1ccc(F)cc1` [Example 21, 1-(4-fluorophenyl)-3-(4-pyridin-2-ylpiperazin-1-yl)propan-1-one oxime] gave a melting point of 159 to 160 °C.
On to `O/N=C(\CCN1CCN(c2ccccn2)CC1)c1ccc(Cl)cc1` [Example 22, (1E)-1-(4-chlorophenyl)-3-(4-pyridin-2-ylpiperazin-1-yl)propan-1-one oxime], for which the melting point was in the range of 188 to 190 °C.
